How the values were obtained:
Assay type in all cases: cell-based
sigm5 = experiment: In vitro ADC activity, AML cell lines, CellTiter-Glo (Example 20); conditions: sigm5, 5 days
nomo1 = experiment: as above; conditions: nomo1, 5 days
KMS-20 = experiment: CellTiter-Glo proliferation assay, single agent and with venetoclax (Example 19); conditions: 5 days; for IC50: KMS-20, 120 h; for Amax: in %
Description: (§1) The CD48 MCL-1 antibody drug conjugates were tested against four endogenous cancer cell lines. KMS-21 BM (JCRB No. JCRB1185 cultured in RPMI-1640+10% FBS), KMS-20 (JCRB No. JCRB1196 cultured in RPMI-1640+10% FBS), KMS-27 (JCRB No. JCRB1188 cultured in RPMI-1640+10% FBS), and NCI-H929 (ATCC No. CRL-9068 cultured in RPMI-1640+10% FBS+0.05 mM 2-mercaptoethanol).
(§2) The ability of the CD48 MCL-1 antibody drug conjugates to inhibit cell proliferation and survival was assessed using the Promega CellTiter-Glo® proliferation assay. Cell lines were cultured in media that is optimal for their growth at 5% CO2, 37° C. in a tissue culture incubator. Prior to seeding for the proliferation assay, the cells were split at least 2 days before the assay to ensure optimal growth density. On the day of seeding, suspension cells were harvested. Cell viability and cell density were determined using a cell counter (Vi-Cell XR Cell Viability Analyzer, Beckman Coulter). […] Cells were seeded at a density of 1,000 cells per well in 45 μL of standard growth media. Plates were incubated at 5% CO2, 37° C. overnight in a tissue culture incubator. The next day, free MCL-1 payload (P1), targeting MCL-1 ADCs and non-targeting isotype ADCs were prepared at 10× in standard growth media. The prepared drug treatments were then added to the cells resulting in final concentrations of 0.0005-300 nM and a final volume of 50 μL per well. Each drug concentration was tested in quadruplets. Two conditions were evaluated for each compound. The compounds were evaluated as single agents and in combination with venetoclax. The venetoclax was dosed at either 5 nM or 50 nM final concentration. Plates were incubated at 5% CO2, 37° C. for 5 days in a tissue culture incubator, after which cell viability was assessed through the addition of 25 μL of CellTiter Glo® (Promega, cat #G7573), a reagent which lyses cells and measures total adenosine triphosphate (ATP) content. Plates were incubated at room temperature for 10 minutes to stabilize luminescent signals prior to reading using a luminescence reader (EnVision Multilabel Plate Reader, PerkinElmer). To evaluate the effect of the drug treatments, luminescent counts from wells containing untreated cells (100% viability) were used to normalize treated samples. A variable slope model was applied to fit a nonlinear regression curve to the data in GraphPad PRISM version 7.02 software. IC50 and Amax values were extrapolated from the resultant curves.

KMS-21 BM = experiment: as above; conditions: 5 days; for IC50: 120 h; for Amax: in %
Description: as §1, §2

KMS-27 = experiment: as above; conditions: 5 days; for IC50: KMS-27, 120 h; for Amax: in %
Description: as §1, §2

NCI-H929 = experiment: as above; conditions: 5 days; for IC50: Homo sapiens, NCI-H929, 120 h; for Amax: in %
Description: as §1, §2

ociaml2 = experiment: In vitro ADC activity, AML cell lines, CellTiter-Glo (Example 20); conditions: ociaml2, 5 days
thp1 = experiment: as above; conditions: thp1, 5 days

IC50 (NCI-H929; NCI-H929, + 5 nM Venetoclax): 0.00869 µM | IC50 (NCI-H929; NCI-H929, + 50 nM Venetoclax): 0.00829 µM | IC50 (NCI-H929; NCI-H929, single agent): 0.0107 µM | GI50 (thp1; Homo sapiens, THP-1, 120 h): 0.028 µM
SMILES: COc1ccccc1-c1nccc(COc2ccccc2C[C@@H](Oc2ncnc3sc(-c4ccc(F)cc4)c(-c4ccc(OCCN5CCN(C)CC5)c(Cl)c4C)c23)C(=O)O)n1 [P1, (2R)-2-[5-[3-chloro-2-methyl-4-[2-(4-methylpiperazin-1-yl)ethoxy]phenyl]-6-(4-fluorophenyl)thieno[2,3-d]pyrimidin-4-yl]oxy-3-[2-[[2-(2-methoxyphenyl)pyrimidin-4-yl]methoxy]phenyl]propanoic acid]
GI50 (sigm5; Homo sapiens, SIG-M5, 120 h): 0.118 µM | Amax (sigm5; in % (unit assumed)): −21 | GI50 (nomo1; Homo sapiens, NOMO-1, 120 h): 0.001 µM | Amax (nomo1; in % (unit assumed)): −80 | IC50 (KMS-20; KMS-20, + 5 nM Venetoclax): 0.0306 µM | IC50 (KMS-20; KMS-20, + 50 nM Venetoclax): 0.0362 µM | IC50 (KMS-20; KMS-20, single agent): 0.0347 µM | Amax (KMS-20; KMS-20, + 5 nM Venetoclax): 75.53 | Amax (KMS-20; KMS-20, + 50 nM Venetoclax): 82.77 | Amax (KMS-20; KMS-20, single agent): 65.65 | IC50 (KMS-21 BM; + 5 nM Venetoclax): 0.00557 µM | IC50 (KMS-21 BM; + 50 nM Venetoclax): 0.00523 µM | IC50 (KMS-21 BM; single agent): 0.00573 µM | Amax (KMS-21 BM; + 5 nM Venetoclax): 100.8 | Amax (KMS-21 BM; + 50 nM Venetoclax): 99.41 | Amax (KMS-21 BM; single agent): 94.25 | IC50 (KMS-27; KMS-27, + 5 nM Venetoclax): 0.0201 µM | IC50 (KMS-27; KMS-27, + 50 nM Venetoclax): 0.012 µM | IC50 (KMS-27; KMS-27, single agent): 0.153 µM | Amax (KMS-27; KMS-27, + 5 nM Venetoclax): 110.5 | Amax (KMS-27; KMS-27, + 50 nM Venetoclax): 114.7 | Amax (NCI-H929; NCI-H929, + 5 nM Venetoclax): 91.53 | Amax (NCI-H929; NCI-H929, + 50 nM Venetoclax): 103.4 | Amax (NCI-H929; NCI-H929, single agent): 90.09 | GI50 (ociaml2; Homo sapiens, OCI-AML2, 120 h): 0.127 µM | Amax (ociaml2; in % (unit assumed)): −50 | Amax (thp1; in % (unit assumed)): −72

— US20230092679A1, “MCL-1 INHIBITOR ANTIBODY-DRUG CONJUGATES AND METHODS OF USE” (NOVARTIS AG, priority 2019, published 2023)
